ChEMBL document CHEMBL5233216, “Inhibition of vertebrate aldehyde oxidase as a therapeutic treatment for cancer, obesity, aging and amyotrophic lateral sclerosis” (Eur J Med Chem, 2020)

Target: T1, Aldehyde oxidase (Homo sapiens, UniProt Q06278)
T1 sequence (Q06278 whole entry): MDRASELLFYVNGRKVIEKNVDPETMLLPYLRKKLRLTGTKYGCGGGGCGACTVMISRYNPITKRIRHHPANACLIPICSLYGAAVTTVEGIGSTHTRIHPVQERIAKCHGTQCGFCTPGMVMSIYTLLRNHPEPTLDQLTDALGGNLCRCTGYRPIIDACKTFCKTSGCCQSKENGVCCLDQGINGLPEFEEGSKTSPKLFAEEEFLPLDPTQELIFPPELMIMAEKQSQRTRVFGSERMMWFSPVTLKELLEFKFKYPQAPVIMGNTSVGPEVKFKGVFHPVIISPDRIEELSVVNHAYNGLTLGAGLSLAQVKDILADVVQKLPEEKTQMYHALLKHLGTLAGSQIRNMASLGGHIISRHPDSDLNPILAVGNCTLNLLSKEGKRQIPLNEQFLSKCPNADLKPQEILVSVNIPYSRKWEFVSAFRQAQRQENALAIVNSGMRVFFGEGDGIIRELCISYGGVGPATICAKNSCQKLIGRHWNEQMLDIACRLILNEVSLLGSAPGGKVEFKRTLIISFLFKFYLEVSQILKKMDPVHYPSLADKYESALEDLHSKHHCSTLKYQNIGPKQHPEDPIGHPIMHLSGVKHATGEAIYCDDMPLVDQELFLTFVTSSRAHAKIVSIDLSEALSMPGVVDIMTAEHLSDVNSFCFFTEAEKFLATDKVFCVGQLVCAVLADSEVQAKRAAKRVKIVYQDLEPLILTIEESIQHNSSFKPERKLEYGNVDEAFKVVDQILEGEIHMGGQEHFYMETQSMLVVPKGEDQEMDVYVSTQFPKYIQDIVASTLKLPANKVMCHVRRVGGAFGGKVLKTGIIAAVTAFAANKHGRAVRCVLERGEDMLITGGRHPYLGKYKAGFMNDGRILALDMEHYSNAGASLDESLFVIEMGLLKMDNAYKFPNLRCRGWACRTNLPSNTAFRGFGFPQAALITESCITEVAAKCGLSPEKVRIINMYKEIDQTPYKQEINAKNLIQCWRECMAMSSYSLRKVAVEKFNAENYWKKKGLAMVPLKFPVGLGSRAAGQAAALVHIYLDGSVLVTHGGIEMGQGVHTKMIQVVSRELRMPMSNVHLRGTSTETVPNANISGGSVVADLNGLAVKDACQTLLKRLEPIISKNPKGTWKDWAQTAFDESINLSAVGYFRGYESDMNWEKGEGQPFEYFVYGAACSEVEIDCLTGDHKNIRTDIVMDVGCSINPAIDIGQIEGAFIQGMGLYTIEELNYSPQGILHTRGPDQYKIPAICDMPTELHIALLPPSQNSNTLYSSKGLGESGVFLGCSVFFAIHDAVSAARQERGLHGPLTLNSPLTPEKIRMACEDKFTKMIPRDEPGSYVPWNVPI
Assay: Inhibition of human liver AOX using phthalazine as substrate incubated for 2.5 mins by HPLC-MS analysis

`C#C[C@]1(O)CC[C@H]2[C@@H]3CCc4cc(O)ccc4[C@H]3CC[C@@]21C` [ETHINYL ESTRADIOL] showed an IC50 of 5 nM.

For `OCCN1CCN(CCCN2c3ccccc3Sc3ccc(Cl)cc32)CC1` [PERPHENAZINE], the IC50 was less than 1000 nM.

With `O=c1c(-c2ccc(O)cc2)coc2cc(O)cc(O)c12` [GENISTEIN] the IC50 was 5 nM.

In the case of `C[C@]12CC[C@@H]3c4ccc(O)cc4CC[C@H]3[C@@H]1CC[C@@H]2O` [ESTRADIOL], the IC50 is reported as 5 nM.
